In patent publication EP3301096A1, “BIS-INDOLE DERIVATIVES FOR USE IN THE TREATMENT OF BACTERIAL INFECTIONS” (Heinrich Heine Universität Düsseldorf, priority 2016, dated 2018):

Assays:
M. tuberculosis H37Rv = experiment: MIC determination, resazurin microplate assay; format: cell-based; conditions: Mycobacterium tuberculosis, 120 h, five days, range 100-0.78 µM
[1] = system: methicillin-resistant Staphylococcus aureus; experiment: MIC quantified via the BacTiter-Glo assay; format: cell-based; conditions: methicillin-resistant strain; 24 h
Protocol: (§1) The MICs of compounds according to formulas (2), (3), (4), (7), (11), (12) and (18) were additionally quantified via the BacTiter-Glo™ assay (Promega, Madison, WI, USA). Briefly, after an incubation time of 24 h, each well was resuspended by pipetting, and 50 µL aliquots were transferred into an opaque-walled multiwell plate. Additionally, control wells containing medium without cells to determine background luminescence were prepared. 50 µL BacTiter-Glo™ reagent were added to each well. Contents were mixed and incubated for five minutes at room temperature. Luminescence was measured using a microplate reader. Growth was calculated relative to the background luminescence (0% growth) and a compound-free DMSO control (100% growth).

[2] = system: methicillin-sensitive Staphylococcus aureus; experiment: MIC quantified via the BacTiter-Glo assay; format: cell-based; conditions: methicillin-sensitive strain; 24 h
Protocol: as §1

[3] = system: human fetal lung fibroblast cell line MRC-5; experiment: Cytotoxicity, resazurin assay; format: cell-based; conditions: MRC-5 cells, 48 h
Protocol: (§2) The cytotoxicity of the compounds according to formulas (2), (3) and (4) and according to formulas (7), (11), (12) and (18) was determined in vitro using the human monocyte cell line THP-1 (Deutsche Sammlung von Mikroorganismen und Zellkulturen GmbH) and the human fetal lung fibroblast cell line MRC-5 (American Type Culture Collection).
(§3) THP-1 cells were cultured in RPMI 1640 medium containing 10% (v/v) fetal bovine serum (FBS), while MRC-5 cells were incubated in Dulbecco's Modified Eagles Medium (DMEM) containing 10% (v/v) FBS both at 37°C in a humidified atmosphere of 5% CO2. […] Cells treated with DMSO in a final concentration of 1% (v/v) served as DMSO toxicity controls. After an incubation time of 48 h, 10 µL resazurin solution (100 µg/mL) were added per well and incubated for further 3 h at 37°C in a humidified atmosphere of 5% CO2. Fluorescence was quantified using a microplate reader (excitation 540 nm, emission 590 nm). Growth was calculated relative to non-inoculated (i.e. cell-free) (0% growth) and untreated (100% growth) controls in triplicate experiments, respectively. For determination of the therapeutic index of the tested substances, the selectivity index (SI) was determined by the quotient of cytotoxic concentration and MIC. Compounds with SI ≥ 10 were characterized in further experiments.

[4] = system: human monocyte cell line THP-1; experiment: Cytotoxicity, resazurin assay; format: cell-based; conditions: THP-1 cells, 48 h
Protocol: as §2, §3

[5] = system: Staphylococcus aureus MRSA strain ATCC 700699; experiment: Time-kill curves in vitro (killing kinetics); format: cell-based; conditions: for bacteria amount: after 6 h at five-fold MIC, inoculum 10^6 CFU/mL; for killing effect: five-fold MIC
[6] = system: methicillin-resistant S. aureus (MRSA) strain ATCC 700699; experiment: Frequency of spontaneous resistant mutants on compound-containing agar; format: cell-based, Staphylococcus aureus; conditions: agar with 3- and 5-fold MIC, 72 h, 37°C
resistant MRSA mutants = experiment: Level of resistance of isolated resistant mutants (dose-response); format: cell-based, Staphylococcus aureus
S. aureus ATCC 25923 = experiment: MIC by broth microdilution method (CLSI); conditions: Staphylococcus aureus, ATCC25923, 24 h
Protocol: (§4) The compounds were tested for their antibacterial activities against the pathogenic nosocomial strains of Staphylococcus aureus, Enterococcus faecalis Enterococcus faecium, Acinetobacter baumannii. The minimal inhibitory concentration (MIC) was determined by the broth microdilution method according to the recommendations of the Clinical and Laboratory Standards Institute (CLSI) (CLSI M7-A9, 2012). For preparation of the inoculum the growth method was used. Bacterial cells were grown aerobically in Muller Hinton (MH) medium at 37°C and 180 rpm. A preculture was grown until log phase (OD600 nm ∼ 0.5) and then seeded at 5 x 10^4 bacteria/well in a total volume of 100 µL in 96 well round bottom microtiter plates and incubated with serially diluted test substances at a concentration range of 100-0.78 µM. The compounds were screened in two-fold serial dilution. Microplates were incubated aerobically at 37°C for 24 h. MICs were determined by identifying the minimum concentration of the compounds that led to complete inhibition of visual growth of the bacteria.

MRSA ATCC 700699 = experiment: MIC by broth microdilution method (CLSI); conditions: for MIC: Staphylococcus aureus, 24 h
Protocol: as §4

E. faecalis ATCC 29212 = experiment: MIC by broth microdilution method (CLSI); conditions: Enterococcus faecalis, ATCC29212, 24 h
Protocol: as §4

E. faecalis ATCC 51299 = experiment: MIC by broth microdilution method (CLSI); conditions: Enterococcus faecalis, ATCC51299, 24 h
Protocol: as §4

E. faecium ATCC 35667 = experiment: MIC by broth microdilution method (CLSI); conditions: Enterococcus faecium, ATCC35667, 24 h
Protocol: as §4

[7] = system: VR E. faecium ATCC 700221; experiment: MIC by broth microdilution method (CLSI); conditions: Enterococcus faecium, ATCC700221, 24 h
Protocol: as §4

[8] = system: Methicillin resistant S. aureus (MRSA; ATCC 700699); experiment: Resistance development during time-kill kinetics; format: cell-based, Staphylococcus aureus; conditions: after 6 and 24 h of incubation, plated on agar with 5x MIC
Protocol: Additionally, the resistance rate of the cultures was determined after 6 and 24 h of incubation. For this, 20 µL of the cultures were plated on 1 mL MH agar containing the five-fold MIC of the compounds (for the compound according to formula (2) and (4): 2 µM, for the compound according to formula (3): 8 µM). After an incubation time of 24 h at 37°C, the colonies were counted. The resistance rate was determined as quotient of the number of resistant colonies on compound containing agar and the total amount of viable bacteria at the corresponding time points.
Two independent cultures C1 and C2 were tested for each attempt. Compounds were tested at 5x MIC resulting in 0.02-0.08% DMSO final concentration. In an independent experiment, medium was replaced and compounds were freshly added after 6 h, denoted "freshly added" in the Figure. 20 µL of different dilution of the cultures after either 6 or 24 h of incubation were plated out on MH agar containing either no antibiotics, which is denoted (*) or the compounds of formulas (2) and (3) at 5x MIC, respectively.

SMILES	MIC (M. tuberculosis H37Rv) [µM]	inhibition of Staphylococcus aureus (BacTiter-Glo) [1]	inhibition of Staphylococcus aureus (BacTiter-Glo) [2]	cytotoxic (inhibitory) concentration [3] [µM]	cytotoxic (inhibitory) concentration [4] [µM]	bacteria amount [5]	amount of surviving bacteria ([5]; after 24 h at five-fold MIC, limit of detection 10^1)	killing effect [5]	frequency of spontaneous resistant mutants [6]	MIC for the mutants relative to the parent MRSA strain (resistant MRSA mutants; mutants 9-RM, 1-RM, 9-RM-5x versus MRSA WT) [fold]	resistance of clones resistant against formula (2) towards the tested compound (resistant MRSA mutants; two tested clones (1-RM))	MIC (S. aureus ATCC 25923) [µM]	MIC (MRSA ATCC 700699) [µM]	MIC (E. faecalis ATCC 29212) [µM]	MIC (E. faecalis ATCC 51299) [µM]	MIC (E. faecium ATCC 35667) [µM]	MIC [7] [µM]	viability of the culture ([5]; compound freshly added to washed cells after 6 h, initial further decrease)	level of resistance in treated cultures [8]	concentrations at which a decreased inhibitory effect could be observed (MRSA ATCC 700699; paradoxical effect, assumed aggregation and precipitation) [µM]
Clc1ccc2[nH]cc(-c3cnc(-c4c[nH]c5ccc(Cl)cc45)nc3)c2c1 [formula (4), 3,3'-(pyrimidine-2,5-diyl)bis(5-chloro-1H-indole)]	50	effectively inhibited	effectively inhibited	> 12.5	> 12.5	< 10^1 CFU/mL	< 10^1 CFU/mL	strong bactericidal killing effect	5×10^-5	8	showed cross-resistance	6.25	0.39	3.12	12.5	1.56	1.56			
Clc1ccc2[nH]cc(-c3cnc(-c4c[nH]c5ccc(Cl)cc45)cn3)c2c1 [formula (2), 2,5-bis(5-chloro-1H-indole-3-yl)pyrazine]	> 100	effectively inhibited	effectively inhibited	12.5	12.5	10^4 CFU/mL		strong bactericidal killing effect	5×10^-7			> 100	0.39	> 100	> 100	> 100	> 100	10^2 CFU/mL	no significant level of resistance was detectable	≥ 3.125
